According to patent US20120142766A1, “SUBSTITUTED 1,3-DIOXANES AND THEIR USES” (EVOLVA SA, priority 2007, published 2012):
“And” between values parts separate entries of the source, which are not always exact repeats. Equal values may be shown once.

Legend:
[1] = test system: Human platelet rich plasma; experiment: TP receptor platelet aggregation, human (U-46619-induced); format: cell-based; conditions: 3 μM U-46619-induced
Description: Thrombosis Research 33:277-288.
TP Receptor Platelet Aggregation—Human:
Human (60±10 kg) platelet rich plasma
Assay. Inhibition of 3 μM U-46619-induced platelet aggregation Incubation Time, Temp: 5 minutes at 37° C. Incubation Buffer Trisodium Citrate (0.13 M)-treated fresh platelet rich plasma
Time of Assessment: 5 minutes
Quantification Method Optical Density Change

[2] = molecular target: T1, Thromboxane synthase (Homo sapiens, UniProt P24557); experiment: Human platelet thromboxane synthase assay; format: biochemical; conditions: 10 μM
T1 construct: Human Platelet Thromboxane Synthase Assay; from tissue; host or cells: human platelets
T1 sequence (P24557 1-533): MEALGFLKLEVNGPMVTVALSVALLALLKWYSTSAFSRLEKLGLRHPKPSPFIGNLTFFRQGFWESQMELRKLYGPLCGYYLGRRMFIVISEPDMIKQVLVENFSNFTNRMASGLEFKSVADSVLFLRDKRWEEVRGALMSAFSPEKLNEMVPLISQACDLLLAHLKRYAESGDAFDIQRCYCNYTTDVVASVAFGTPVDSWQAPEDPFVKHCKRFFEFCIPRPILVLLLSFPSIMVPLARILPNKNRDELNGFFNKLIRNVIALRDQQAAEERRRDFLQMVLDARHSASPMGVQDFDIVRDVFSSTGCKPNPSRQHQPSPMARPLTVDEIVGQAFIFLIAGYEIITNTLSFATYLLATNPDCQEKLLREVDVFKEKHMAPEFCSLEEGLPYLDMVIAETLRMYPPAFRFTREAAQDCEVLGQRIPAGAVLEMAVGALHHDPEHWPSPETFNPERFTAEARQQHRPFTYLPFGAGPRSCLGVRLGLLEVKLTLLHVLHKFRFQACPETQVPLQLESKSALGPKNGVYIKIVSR
Description: The compounds were tested for thromboxane synthase inhibition essentially as described by Borsch-Haubold A G, Pasquet S, Watson S P. (1998) Direct inhibition of cyclooxygenase-1 and -2 by the kinase inhibitors SB 203580 and PD 98059. […] 1. Imidazole derivatives. J Med. Chem. (10):1139-48 according to the following:
Pre-incubation time, temp: 15 minutes at 25° C. Incubation time, temp: 3 minutes at 25° C.
Incubation Buffer: 10 mM Tris-HCl, pH 7.4
Quantification Method: EIA quantification of TxB2

[3] = molecular target: T2, Human Recombinant (E. coli) PPARgamma (Homo sapiens, UniProt P37231); experiment: PPAR gamma binding assay ([3H]-rosiglitazone); conditions: [3H]-rosiglitazone 10 nM
T2 construct: host or cells: E. coli
T2 sequence (P37231 1-505): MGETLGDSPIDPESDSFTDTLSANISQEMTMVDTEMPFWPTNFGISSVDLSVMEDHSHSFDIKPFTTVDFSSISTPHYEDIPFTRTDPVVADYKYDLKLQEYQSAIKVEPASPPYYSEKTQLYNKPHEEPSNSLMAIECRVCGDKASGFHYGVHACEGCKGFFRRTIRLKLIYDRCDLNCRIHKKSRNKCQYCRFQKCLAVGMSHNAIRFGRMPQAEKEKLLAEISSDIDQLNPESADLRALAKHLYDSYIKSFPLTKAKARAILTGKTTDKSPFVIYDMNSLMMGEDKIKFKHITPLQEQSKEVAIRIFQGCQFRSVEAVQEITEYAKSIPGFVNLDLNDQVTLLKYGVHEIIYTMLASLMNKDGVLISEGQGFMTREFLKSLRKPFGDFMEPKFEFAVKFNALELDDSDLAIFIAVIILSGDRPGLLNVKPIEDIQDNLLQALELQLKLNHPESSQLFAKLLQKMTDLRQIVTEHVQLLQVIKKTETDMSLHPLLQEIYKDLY
Description: Incubation: 120 min. at 4° C.
The results are expressed as a percent of control specific binding ((measured specific binding/control specific binding)×100) obtained in the presence of the test compounds. The IC50 values (concentration causing a half-maximal inhibition of control specific binding) and Hill coefficients (nil) were determined by non-linear regression analysis of the competition curves generated with mean replicate values using Hill equation curve fitting (Y=D+[(A−D)/(1+(C/C50)nH)], where Y=specific binding, D=minimum specific binding, A=maximum specific binding, C=compound concentration, C50=IC50, and nH=slope factor). This analysis was performed using a software developed at Cerep (Hill software) and validated by comparison with data generated by the commercial software SigmaPlot® 4.0 for Windows® (© 1997 by SPSS Inc.). The inhibition constants (Ki) were calculated using the Cheng Prusoff equation (Ki=IC50/(1+(L/KD)), where L=concentration of radioligand in the assay, and KD=affinity of the radioligand for the receptor).

[4] = test system: KKA^y mice; experiment: KKAy mice on high fat diet, 14-day oral gavage BID; format: in vivo, mouse
Description: 52 male KKA^y mice are obtained commercially (e.g., from Clea Japan) at an age of 6 weeks and put on a high fat diet upon arrival. Individual mice were housed in IVC Type II cages during both the acclimatization and the experimental phase. Both food (high fat diet) and water are supplied ad libitum.
1 animal per cage. […] Lights on at 06:00 a.m. Temperature: 21-25° C. Relative humidity target range: 55-60%.
Mice were randomized into treatment groups according to their 4-h fasting blood glucose.
4 hours after the last administration, non-fasting conditions.
Gamma irradiated high fat diet is commercially available (e.g., Research Diets, Inc. New Brunswick, N.J. (Product # D12266BI)).
Blood is collected into heparin containing glass capillaries which are subsequently centrifuged in a “Haematokrit 24” centrifuge (Hettich) at 15′200×g for 10 minutes at room temperature to obtain the hematocrit value.
The following serum parameters are determined on a COBAS INTEGRA 800 auto analyzer (Roche Diagnostics, Switzerland) using the reagents and protocols provided by the supplier.
All measurements are made on Day 14 of administration, except for the food intake and body weight measurements that are made on Day 12.

[5] = 53 mg/kg BID oral gavage, Day 12, mean ± S.E.M.
[6] = 53 mg/kg BID oral gavage, Day 14, mean ± S.E.M.
[7] = 14-day BID, enoic acid 53 mg/kg, rosiglitazone 5 mg/kg, Compounds 3 and 13 dose not stated

For O=C(O)CC/C=C\C[C@@H]1CO[C@H](c2ccccc2Cl)O[C@@H]1c1ccccc1O [Compound C, (Z)-6-((2S,4S,5R)-2-(2-chlorophenyl)-4-(2-hydroxyphenyl)-1,3-dioxan-5-yl)hex-4-enoic acid], the IC50 [1] was 0.31 µM, the “Thromboxane synthase Human platelet Inhibition (%)” value [2] was 61% and the inhibition at 10 µM [2] was 43%. For the same molecule, the Ki ([3]; Cheng Prusoff, read-out: PPARγ binding Ki) was 1.8 µM and 4.3 µM, the IC50 ([3]; read-out: PPARγ binding IC50) was 4.9 µM and 12 µM and the “Body Weight” value [4, 5] was 45.4 ± 1.0 g. The “Food Intake” value [4, 5] was 5.0 ± 0.6 g/day, the ALP [4, 6] was 21.5 ± 1.6 dU/L and the ALT [4, 6] was 5.1 ± 0.6 dU/L. It also gave an AST [4, 6] of 7.7 ± 1.0 dU/L, an FFA [4, 6] of 1.7 ± 0.3 mM and a Fructosamine [4, 6] of 0.41 ± 0.03 mM. For the same molecule, the HDL [4, 6] was 3.1 ± 0.2 mM, the HbA1C [4, 6] was 7.8 ± 0.3 % and the Heart weight [4, 6] was 208.5 ± 7.6 mg. For the same molecule, the Hematocrit [4, 6] was 40.1 ± 1.6%, the Insulin [4, 6] was 39.1 ± 8.8 µg/L and the “Serum Glucose” value [4, 6] was 31.9 ± 3.6 mM. The TG [4, 6] was 2.0 ± 0.3 mM, the “Total Cholesterol” value [4, 6] was 3.6 ± 0.3 mM and the “Body weight (in words)” value [4, 7] was “do not alter body weight”. The “Circulating glucose levels (in words)” value [4, 7] was “decreased”, the “FFA (in words)” value [4, 7] was “decreases the FFA” and the “HbA1c levels (in words)” value [4, 7] was “decreased”. For the same molecule, the “Heart weight (in words)” value [4, 7] was “no effect on heart weight”.
